From US20190365719A1, “COMBINATION TREATMENTS OF HSP90 INHIBITORS FOR ENHANCING TUMOR IMMUNOGENICITY AND METHODS OF USE THEREOF” (Massachusetts Institute of Technology, priority 2018, published 2019)

Experiments:
MC38 tumors = assay: Subcutaneous MC38 tumors in syngeneic C57Bl/6 mice, HSP90i in drinking water; type: in vivo
Method: All experiments involving mice were performed under a protocol approved by the MIT Institutional Animal Care and Use Committee. MC38 cells growing in log phase were harvested by incubation with trypsin, washed 3× in PBS, and implanted (1×10^5 cells/site) into the right inguinal region of 6-8 week old female C57B16 mice (Jackson Labs). Once palpable, tumors were monitored every other day via digital caliper measurements and volume calculated using the following formula: Length (mm)×Width (mm)×Width (mm)×[…]=tumor volume in mm^3. Mice were euthanized by CO2 inhalation, tumors were harvested and cut into thirds with a razor for histology, flow cytometry, and flash freezing in liquid N2 for RNA/protein isolation.
For oral dosing with HSP90i, the average water consumption of the mice was calculated by measuring water bottle weight before and after 72 hours of housing to determine the average consumption per mouse, per day. Across all experiments, C57Cl/6 mice consumed approximately 4 mL every day. Using these water consumption values, and mouse weight, a 4 mg/mL stock solution of NVP-HSP990 (in 100% PEG400) was diluted directly into the drinking water to achieve a target dose of 0.5 mg/kg/day. HSP990 treatment was begun 72 hours prior to implantation of MC38 cells to allow the drug to reach steady state level prior to tumor challenge.
Histology For histological sectioning, tumor tissue was fixed in 10% buffered formalin for 24 hours prior to transfer to 70% EtOH for storage until paraffin-embedding, sectioning and mounting on glass slides. For CD3 and CD8 staining, slides were dewaxed, and antigen retrieval was performed in citrate buffer (10 mM Citric acid, pH=6.0) and pressure-cooked. Slides were then cooled and washed in PBS+0.1% Tween-20 (PBST). Endogenous peroxidase activity was then blocked with Dako Dual Enzyme Block (Agilent Technologies) and endogenous proteins were blocked with 2.5% goat serum in PBST. Slides were then incubated with primary anti-CD8 antibody (1:400) overnight at 4° C. or anti-CD3 antibody (1:500) for 1 hr at 25° C. After incubation with primary antibody, slides were washed 3× with PBST, and then incubated with HRP-conjugated secondary antibody for 30 min at […]. Slides were then washed 3× with PBST prior to development with DAB substrate for 3-5 min until positive staining was observed.
For CD8 and CD3 quantification, slides were scanned with a Leica High Resolution slide scanner and images imported into Aperio eSlide Manager. Two independent sections from each tumor were outlined and CD3/CD8+ cells were identified and quantified using the Nuclear-ID-v1 Algorithm. Individual tumor values are the average of the two tumor sections.
For analysis of MHC Class I on MC38 tumors, mice were sacrificed with by CO2 inhalation, tumor tissue quickly dissected and placed on ice until processing by thorough mincing with a razor and filtration through a 70 μm cell strainer. Cells were then stained with H2-Kb antibody (1:400) or isotype control as described for cultured cells.
For analysis of tissues, samples (2.5-5.0 mm^3) were homogenized in 1 mL of Trizol (Molecular Research Center), phase separated with 200 μL chloroform, and precipitated with 100% isopropanol prior to resuspension in MilliQ H2O and quantification with Nanodrop. RNA was then processed as described above for qRT-PCR.

HSP90β = HSP90β (Homo sapiens, UniProt P08238); conditions: cited from earlier work
Sequence of HSP90β (P08238 whole entry): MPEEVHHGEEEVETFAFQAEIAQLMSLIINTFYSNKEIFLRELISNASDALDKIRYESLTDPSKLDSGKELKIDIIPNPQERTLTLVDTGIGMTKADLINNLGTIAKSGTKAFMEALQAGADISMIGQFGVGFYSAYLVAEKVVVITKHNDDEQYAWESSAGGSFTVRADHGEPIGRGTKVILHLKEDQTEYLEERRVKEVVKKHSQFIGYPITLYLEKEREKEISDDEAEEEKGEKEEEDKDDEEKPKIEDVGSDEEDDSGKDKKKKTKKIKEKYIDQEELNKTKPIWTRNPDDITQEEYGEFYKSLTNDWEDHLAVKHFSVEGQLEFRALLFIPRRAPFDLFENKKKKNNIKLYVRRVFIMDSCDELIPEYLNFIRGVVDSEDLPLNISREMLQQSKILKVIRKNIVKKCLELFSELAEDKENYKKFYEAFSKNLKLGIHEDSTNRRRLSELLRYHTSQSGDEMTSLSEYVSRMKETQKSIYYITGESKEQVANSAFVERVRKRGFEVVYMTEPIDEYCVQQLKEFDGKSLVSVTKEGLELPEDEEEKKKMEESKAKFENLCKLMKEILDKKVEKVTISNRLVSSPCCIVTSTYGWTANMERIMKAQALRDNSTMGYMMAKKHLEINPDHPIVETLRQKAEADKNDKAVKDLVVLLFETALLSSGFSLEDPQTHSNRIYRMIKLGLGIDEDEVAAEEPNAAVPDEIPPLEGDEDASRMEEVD

[1] = cited from earlier work
KPM lung tumors = assay: Lung tumor burden in hypermutant KPM mouse model of NSCLC; type: in vivo; conditions: KPM mice, 0.5 mg/kg/day in drinking water for 4 weeks
Source text: (§1) A genetically engineered mouse model of non-small cell lung cancer (NSCLC) was used. Mice harboring a Cre-recombinase inducible oncogenic Kras, and a floxed p53 allele (KP) develop tumors following intratracheal administration of Cre recombinase. In addition, a hypermutant mouse model of NSCLC (KPM) was used in which mice have a floxed allele of the MutS homolog 2 (Msh2) gene, a critical component of DNA mismatch repair, in addition to the genetic modifications of the KP mouse model. These models enable the interrogation of Hsp90i strategies in a physiologically relevant NSCLC model with and without hypermutation.
(§2) KP and KPM mice were infected intratracheally with Adenovirus expressing Cre recombinase from an SPC promoter at a titer of 2×10^8 plaque forming units per mouse to initiate tumor formation. 8 weeks following tumor initiation, the cohort was randomized and vehicle (control) or Hsp90i (NVP-HSP990) was administered in the drinking water at a dose of 0.5 mg/kg/day for 4 weeks prior to analysis at 12 weeks post tumor induction.
(§3) Tumor burden was analyzed histologically on tumor sections stained with hemotoxylin and eosin (H&E) using standard protocols at the Koch Institute Histology Facility. Tumor burden was calculated by dividing the total area of tumor tissue over the total area of normal lung tissue present in each sample.

[2] = Mouse weights and body condition, KP and KPM mice; type: in vivo; conditions: four weeks of low dose treatment
Method: FIG. 11A is a box plot showing tumor burden analysis in KP and KPM mice treated with vehicle (control) or Hsp90i. FIG. 11B is a graph showing the longitudinal analysis of mouse weights with vehicle or Hsp90i in the drinking water. The mice were treated for up to 4 weeks with vehicle control or a low dose of HSP90i. In FIG. 11B, KP and KPM mice were combined for vehicle and control treatment groups.
as §2

KP lung tumors = assay: Lung tumor burden in KP mouse model of NSCLC; type: in vivo; conditions: KP mice, 0.5 mg/kg/day in drinking water for 4 weeks
Source text: as §1, §2, §3

[3] = 0.5 mg/kg/day in drinking water, 18 days post implantation, C57Bl/6

With `COc1cccc(-c2cc(F)ccc2[C@H]2Cc3nc(N)nc(C)c3C(=O)N2)n1` [NVP-HSP990] the “reduction in tumor mass” value (MC38 tumors; [3]) was “greater than 50%”, the “reduction in tumor volume” value (MC38 tumors; [3]) was “greater than 50%” and the “heat-shock response in tumors (qRT-PCR)” value (MC38 tumors; continuous low-dose administration) was “does not induce a heat-shock response”. The “immune gene expression in MC38 tumor tissue (Nanostring)” value (MC38 tumors; low dose exposure) was “did not result in broad downregulation in immune gene expression”, the “total number of CD3+ or CD8+ T-cells in the tumors” value (MC38 tumors; treated versus control mice) was “no significant difference” and the “MHC Class I expression on the surface of dissociated MC38 tumor cells” value (MC38 tumors; tumors from treated mice versus vehicle) was “higher levels of MHC Class I expression”. For the same compound, the IC50 (HSP90β) was 0.8 nM, the drug half-lives ([1]; both doses (50 mg and 2.5 mg)) was 20 to 25 h and the “steady state drug concentration in plasma” value ([1]; oral dosing of 2.5 mg) was 20 to 40 nM. For the same compound, the peak plasma concentration ([1]; single oral dose of 2.5 mg, human) was 34 nM, the “peak plasma drug concentration” value ([1]; single orally administered dose of 50 mg, human) was 1.31 µM and the “lung tumor burden versus control” value (KPM lung tumors) was “significantly reduced the lung tumor burden”. For the same compound, the “mouse mass or body condition” value [2] was “minimal effects on mouse mass or body condition” and the “lung tumor burden versus vehicle” value (KP lung tumors) was “no significant difference”.
